Assay results: BindingDB's records for doi:10.1016/j.bmcl.2010.05.049 (University of Athens, 2010)

Assay: Binding affinity to Influenza A Weybridge(H7N7) virus Matrix protein 2 by spectrophotometry

SMILES | Kd [nM]
C1CCC2(NC1)C1CC3CC(C1)CC2C3 (stereo unspecified) | 390
CC1CCC2(N1)C1CC3CC(C1)CC2C3 (stereo unspecified) | 1500
C1CNC2(C1)C1CC3CC(C1)CC2C3 (stereo unspecified) | 1160
CC1(N)C2CC3CC(C2)CC1C3 (stereo unspecified) | 3600
C1CCC(C23CC4CC(CC(C4)C2)C3)NC1 (stereo unspecified) | 1510
NC12CC3CC(C1)CC(F)(C3)C2 | 4860
CCC1(N)C2CC3CC(C2)CC1C3 (stereo unspecified) | 6700
O=C1CCC2(N1)C1CC3CC(C1)CC2C3 (stereo unspecified) | 1490
CCC1CCC2(N1)C1CC3CC(C1)CC2C3 (stereo unspecified) | 5580
CCCC1(N)C2CC3CC(C2)CC1C3 (stereo unspecified) | 8710
C1CNC(C23CC4CC(CC(C4)C2)C3)C1 (stereo unspecified) | 510
CN1CCCC12C1CC3CC(C1)CC2C3 (stereo unspecified) | 2930
NC1C2CC3CC(C2)CC1C3 (stereo unspecified) [2-Adamantanamine] | 2360
NC1CCCCCC1 [Cycloheptanamine] | 16200
NC1CCCCCCC1 [Cyclooctanamine] | 1830
NC12CC3CC(CC(C3)C1)C2 [SYMADINE] | 320
